Tested on: urethra
Test: Intraluminal pressure of the urethra in the anaesthetised rabbit
Type: in vivo
Conditions: i.v.; for Contraction of the urethra / Duration of effect (contraction of the urethra): female Japanese white rabbits, urethane anaesthesia, phenylephrine 30 μg/kg vs Example 2 10 μg/kg, phenylephrine = 100
Description: Female Japanese white rabbits (weighing 3.0 to 3.5 kg) are anaesthetised with urethane (1 g/kg i.p.). A polyethylene cannula is inserted in the urinary bladder by means of a small incision. The changes in the intraluminal pressure are recorded by means of balloon in the urethra which contains about 1.5 ml of water at 37° C.

[1] = rabbit, 10 μg/kg Example 2 vs 30 μg/kg phenylephrine, factor

Compound	Contraction of the urethra [%]	Duration of effect (contraction of the urethra) [%]	duration of effect (contraction of the urethra), longer by a factor compared with phenylephrine [1]	potency with regard to the contraction of the urethra, higher by a factor compared with phenylephrine [1]
Cc1c(N(C)C)ccc(Br)c1N=C1NCCN1 [Example 2, 2-(6-Bromo-3-dimethylamino-2-methylphenylimino)imidazolidine]	273	430	4.3	2.73
CNC[C@H](O)c1cccc(O)c1 [Phenylephrine, phenylephrine]	100	100	–	–

Source: patent publication US7019021B2, “Compounds and methods for treating urinary incontinence” (Boehringer Ingelheim Pharma GmbH & Co. KG, priority 1995, dated 2006)
